According to patent publication US12691092B2, “Method for reducing cutaneous skin scarring by pre-emptive priming and compounds and compositions for its implementation” (SOS SCIENCE OF SKIN LTD, priority 2020, dated 2026):

Legend:
CD31 = CD31 angiogenic immunohistochemical marker in scar biopsies; type: in vivo, human
Protocol: A double-blind randomized placebo-controlled trial was conducted using a temporal punch-biopsy model. The punch biopsy and topical application methodology used in the study is illustrated in FIG. 1, namely showing pre-injury pre-emptive priming (7-days), pre-injury pre-emptive priming (3-days), day of injury (immediate application on day 0), post-injury (delayed 2 weeks post injury) including biopsy time points and time of topical applications. Each group applied both placebo and topical formulations twice daily for the duration of the study until week 8, with only the starting time point differing between groups Participants were split into 4 groups (n=10 in each group) in order to compare different modes (timings) of commencement of the topical application: • Group-1: Pre-emptive Priming (7-days): pre-injury • Group-2: Pre-emptive Priming (3-days): pre-injury • Group-3: Immediate (0-day): day-of-injury • Group-4: Delayed (14-days): post-injury Clinical quantitative devices were used to objectively monitor cutaneous healing at weekly intervals and punch biopsies were performed on day 0 (uninjured skin) and at weeks 4 and 8 for protein and gene expression analyses. In the trial, topical EGCG and a placebo topical were applied twice daily for the duration of the trial until week 8 with only the starting time points differing between groups. Clinical and experimental analysis involved use of non-invasive devices as well as protein and gene studies. Excisional skin biopsies in upper arms were evaluated weekly with multiple quantitative devices over an 8-week period. […] In order to further support these findings and the clinical findings, two well-known and established angiogenic immunohistochemical markers; CD31 and VEGF-A were used. […] There was a significant difference between groups (p=0.02) at week-4.

[1] = test system: human skin scarring model; experiment: Blood flow by full-field laser perfusion imaging (FLPI); type: in vivo
Protocol: A double-blind randomized placebo-controlled trial was conducted using a temporal punch-biopsy model. The punch biopsy and topical application methodology used in the study is illustrated in FIG. 1, namely showing pre-injury pre-emptive priming (7-days), pre-injury pre-emptive priming (3-days), day of injury (immediate application on day 0), post-injury (delayed 2 weeks post injury) including biopsy time points and time of topical applications. Each group applied both placebo and topical formulations twice daily for the duration of the study until week 8, with only the starting time point differing between groups Participants were split into 4 groups (n=10 in each group) in order to compare different modes (timings) of commencement of the topical application: • Group-1: Pre-emptive Priming (7-days): pre-injury • Group-2: Pre-emptive Priming (3-days): pre-injury • Group-3: Immediate (0-day): day-of-injury • Group-4: Delayed (14-days): post-injury Clinical quantitative devices were used to objectively monitor cutaneous healing at weekly intervals and punch biopsies were performed on day 0 (uninjured skin) and at weeks 4 and 8 for protein and gene expression analyses. In the trial, topical EGCG and a placebo topical were applied twice daily for the duration of the trial until week 8 with only the starting time points differing between groups. […]

human skin models = conditions: ex vivo human skin models; cited from earlier work
[2] = test system: human skin scarring model; experiment: Blood flow by dynamic optical coherence tomography (D-OCT); type: in vivo
Protocol: A double-blind randomized placebo-controlled trial was conducted using a temporal punch-biopsy model. The punch biopsy and topical application methodology used in the study is illustrated in FIG. 1, namely showing pre-injury pre-emptive priming (7-days), pre-injury pre-emptive priming (3-days), day of injury (immediate application on day 0), post-injury (delayed 2 weeks post injury) including biopsy time points and time of topical applications. Each group applied both placebo and topical formulations twice daily for the duration of the study until week 8, with only the starting time point differing between groups Participants were split into 4 groups (n=10 in each group) in order to compare different modes (timings) of commencement of the topical application: • Group-1: Pre-emptive Priming (7-days): pre-injury • Group-2: Pre-emptive Priming (3-days): pre-injury • Group-3: Immediate (0-day): day-of-injury • Group-4: Delayed (14-days): post-injury Clinical quantitative devices were used to objectively monitor cutaneous healing at weekly intervals and punch biopsies were performed on day 0 (uninjured skin) and at weeks 4 and 8 for protein and gene expression analyses. In the trial, topical EGCG and a placebo topical were applied twice daily for the duration of the trial until week 8 with only the starting time points differing between groups. Blood flow analysis using non-invasive objective measures, including full-field laser perfusion imaging (FLPI) and dynamic optical coherence tomography (D-OCT), was undertaken. Clinical images and the corresponding FLPI and D-OCT images are shown in FIGS. 6a, 6b and 6c respectively.

## O=C(OC1Cc2c(O)cc(O)cc2OC1c1cc(O)c(O)c(O)c1)c1cc(O)c(O)c(O)c1 (single isomer, unassigned; (-)) [EGCG, (-)-epigallocatechin-3-gallate]
CD31; primed uninjured skin prior to injury
  Angiogenic markers in primed uninjured skin: reduces angiogenic markers
CD31; week 4, 7-day priming vs delayed, p=0.01
  CD31: larger reduction in group 1 compared to group-4: 40%
CD31; weeks 4 and 8, all groups, p<0.01
  CD31 in EGCG-treated samples compared with placebo: significantly down-regulated
[1]; group-1 weeks 1 and 8, group-2 weeks 3, 7, 8, group-3 weeks 1-3, 6-8, group-4 weeks 3-8, p<0.01
  FLPI blood flow, EGCG arms compared to placebo arms: significant reduction
[1]; week 1, p<0.001, p=0.002
  FLPI blood flow, between group comparison, groups-1 and 3 vs group-4: reduced blood flow more than group-4
Human skin models
  Effect on scar growth: inhibited growth and induced scar shrinkage
  Mast cell (MC) numbers: significantly reduced mast cell (MC) numbers
[2]; group-1 weeks 1-8, group-2 weeks 1-8, group-3 weeks 1-5, 7, 8, group-4 weeks 4-7, p<0.01
  D-OCT blood flow, EGCG-treated compared to placebo: significantly decreased
[2]; week 1, p<0.001, p=0.006, p=0.001
  D-OCT blood flow, group comparison, groups 1-3 vs group-4: reduced blood flow more than group-4
[2]; week 2, p=0.016
  D-OCT blood flow, group comparison, group-1 vs group-4: greater difference than group-4
[2]; week 8, p=0.003, p=0.002
  D-OCT blood flow, group comparison, group-2 vs groups-3 and -4: reduced more than groups-3 and -4
